System: total cLP cells from WT mice
Assay: Co-culture of total cLP cells with Lactobacillus strains, gene expression
Format: cell-based, mouse
Details: 1×10^5 cLP cells with 1×10^6 CFU, 12 h
Procedure: FIG. 7C: 1×10^5 total cLP cells from WT mice were co-cultured with 1×10^6 CFU (/well) L. murinus, L. animalis, L. salivarius, L. johnsonii or L. reuteri for 12 h. Cytokine gene expression was determined by real-time RT-PCR. Data in (FIGS. 7A-C) are representative of two independent experiments.
Total RNA was extracted with Mammalian Total RNA Miniprep kit (Sigma-Aldrich, St. Louis, U.S.) according to the manufacturer's instructions. RNA was denatured in the presence of an oligo dT primer and then reverse transcribed with the High Capacity cDNA Reverse Transcription Kit (Applied Biosystems, San Francisco, U.S.). Quantitative real-time RT-PCRs were performed with a SYBR Green qPCR kit (Carlsbad, U.S.) and an iCycler system (Bio-Rad, Hercules, U.S.) with the sets of primers described in Table 1, and the expression of each mRNA encoding cytokine was normalized with gapdh expression level.

In the case of Lactobacillus reuteri, the “expression of these genes (Tgfb, Il10, Foxp3, Rorc)” value is reported as “did not modify”.

Source: patent US9738731B2, “Lactic acid bacterium growth enhancer, regulatory T-cell number increasing agent, method of enhancing growth of lactic acid bacterium, method of increasing number of regulatory T-cells, method of evaluating regulatory T-cell number increasing effect, and method of evaluating lactic acid growth …” (TOKYO UNIVERSITY OF SCIENCE FOUNDATION, priority 2013, dated 2017)
